In ChEMBL document CHEMBL4052642, “4-Methyl-6,7-dihydro-4H-triazolo[4,5-c]pyridine-Based P2X7 Receptor Antagonists: Optimization of Pharmacokinetic Properties Leading to the Identification of a Clinical Candidate” (J Med Chem, 2017):
pIC50: −log10 of the molar value. ≈ marks a conversion by molar mass, not a printed value.

Tests used:
Cytochrome P450 3A4 = Cytochrome P450 3A4 (Homo sapiens, UniProt P08684); experiment: Inhibition of CYP3A4 in human liver microsomes using midazolam as substrate after 15 mins by LC-MS/MS analysis; format: ADME
Cytochrome P450 2D6 = Cytochrome P450 2D6 (Homo sapiens, UniProt P10635); experiment: Inhibition of CYP2D6 in human liver microsomes using dextromethorphan as substrate after 15 mins by LC-MS/MS analysis; format: ADME
Cytochrome P450 2C9 [1] = target: T1, Cytochrome P450 2C9 (Homo sapiens, UniProt P11712); experiment: Inhibition of CYP2C9 in human liver microsomes using diclofenac as substrate after 15 mins by LC-MS/MS analysis; format: ADME
Cytochrome P450 2C19 [2] = target: T2, Cytochrome P450 2C19 (Homo sapiens, UniProt P33261); experiment: Inhibition of CYP2C19 in human liver microsomes using S-mephenytoin as substrate after 15 mins by LC-MS/MS analysis; format: ADME
Cytochrome P450 2C8 = target: T3, Cytochrome P450 2C8 (Homo sapiens, UniProt P10632); experiment: Inhibition of CYP2C8 in human liver microsomes using paclitaxel as substrate after 15 mins by LC-MS/MS analysis; format: ADME
T3 sequence (P10632 whole entry): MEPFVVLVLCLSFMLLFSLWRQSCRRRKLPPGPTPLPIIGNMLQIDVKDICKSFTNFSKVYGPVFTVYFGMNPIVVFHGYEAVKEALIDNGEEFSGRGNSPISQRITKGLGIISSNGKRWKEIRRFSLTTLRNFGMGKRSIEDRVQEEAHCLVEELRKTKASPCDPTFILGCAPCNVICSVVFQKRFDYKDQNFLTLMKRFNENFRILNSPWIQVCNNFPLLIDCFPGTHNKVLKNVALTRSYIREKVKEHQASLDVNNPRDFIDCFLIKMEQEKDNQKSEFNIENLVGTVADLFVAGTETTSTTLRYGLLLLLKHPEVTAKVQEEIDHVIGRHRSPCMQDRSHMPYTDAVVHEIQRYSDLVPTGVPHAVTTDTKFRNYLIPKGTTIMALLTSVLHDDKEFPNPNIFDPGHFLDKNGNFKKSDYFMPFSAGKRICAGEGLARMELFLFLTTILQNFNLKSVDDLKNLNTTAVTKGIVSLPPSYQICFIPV

Cytochrome P450 1A2 = target: T4, Cytochrome P450 1A2 (Homo sapiens, UniProt P05177); experiment: Inhibition of CYP1A2 in human liver microsomes using phenacetin as substrate after 15 mins by LC-MS/MS analysis; format: ADME
T4 sequence (P05177 whole entry): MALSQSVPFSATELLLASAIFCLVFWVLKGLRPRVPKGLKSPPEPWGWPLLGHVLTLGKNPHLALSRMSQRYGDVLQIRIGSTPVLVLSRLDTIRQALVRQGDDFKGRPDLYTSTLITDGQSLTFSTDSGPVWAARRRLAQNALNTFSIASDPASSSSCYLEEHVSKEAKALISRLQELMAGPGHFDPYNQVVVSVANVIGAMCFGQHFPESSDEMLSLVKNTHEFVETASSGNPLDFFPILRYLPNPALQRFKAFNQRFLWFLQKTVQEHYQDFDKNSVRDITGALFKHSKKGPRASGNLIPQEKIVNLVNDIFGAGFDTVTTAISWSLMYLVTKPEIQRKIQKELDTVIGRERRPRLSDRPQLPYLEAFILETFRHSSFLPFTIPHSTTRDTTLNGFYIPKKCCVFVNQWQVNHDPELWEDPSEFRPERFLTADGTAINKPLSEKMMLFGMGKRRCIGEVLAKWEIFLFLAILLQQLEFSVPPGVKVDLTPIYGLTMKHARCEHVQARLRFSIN

[3] = Solubility of compound in phosphate buffer at pH 7 after 3 days; format: physicochemical
[4] = Solubility of compound in phosphate buffer at pH 2 after 3 days; format: physicochemical
[5] = Protein binding in human plasma at 1 uM after 6 hrs by equilibrium dialysis method; format: ADME, cell-free; conditions: read-out: PPB (converted)
[6] = Protein binding in mouse plasma at 1 uM after 6 hrs by equilibrium dialysis method; format: ADME, cell-free; conditions: read-out: PPB (converted)
[7] = Protein binding in rat plasma at 1 uM after 6 hrs by equilibrium dialysis method; format: ADME, cell-free; conditions: read-out: PPB (converted)
[8] = target: Voltage-gated inwardly rectifying potassium channel KCNH2 (Homo sapiens, UniProt Q12809); experiment: Inhibition of [3H]-dofetilide binding to human ERG expressed in HEK293 cells; format: cell-based
Rattus norvegicus [9] = experiment: Toxicity in rat assessed as autoinduction at 50 to 150 mg/kg administered via oral gavage on day 1 and day 4; format: organism-based; conditions: in vivo
Rattus norvegicus [10] = experiment: Toxicity in rat assessed as increase in liver weight at 50 to 150 mg/kg administered via oral gavage on day 1 and day 4; format: organism-based; conditions: in vivo
Rattus norvegicus [11] = experiment: Toxicity in rat assessed as hepatic lipidosis at 50 to 350 mg/kg administered via oral gavage on day 1 and day 4 measured on day 5 by hematoxylin/eosin staining-based microscopic method; format: organism-based; conditions: in vivo
Plasma = experiment: Plasma concentration in rat at 250 mg/kg administered single dose via oral gavage; format: ADME, organism-based; conditions: in vivo
Rattus norvegicus [12] = experiment: Toxicity in rat assessed as ataxia at 500 to 1000 mg/kg administered single dose via oral gavage; format: organism-based; conditions: in vivo
Rattus norvegicus [13] = experiment: Toxicity in rat assessed as decrease in activity at 250 to 1000 mg/kg administered single dose via oral gavage; format: organism-based; conditions: in vivo
Cytochrome P450 2C9 [14] = target: T1, Cytochrome P450 2C9; experiment: Drug metabolism assessed as recombinant human CYP2C9-mediated metabolite formation; format: ADME; conditions: recombinant enzyme
Cytochrome P450 2C19 [15] = target: T2, Cytochrome P450 2C19; experiment: Drug metabolism assessed as recombinant human CYP2C19-mediated metabolite formation; format: ADME; conditions: recombinant enzyme
Rattus norvegicus [16] = experiment: Drug metabolism in Sprague-Dawley rat assessed as formation of (R)-(2-chloro-3-(trifluoromethyl)phenyl)(4-methyl-1,4,6,7-tetrahydro-5H-[1,2,3]triazolo[4,5-c]pyridin-5-yl)methanone at 1 mg/kg, iv or 5 mg/kg, po by LC-MS/MS analysis; format: ADME, organism-based; conditions: in vivo
[17] = Drug excretion in Sprague-Dawley rat at 1 mg/kg, iv or 5 mg/kg, po by LC-MS/MS analysis; format: ADME, organism-based; conditions: in vivo, read-out: Drug excretion
[18] = Oral bioavailability in Balb/c mouse at 5 mg/kg by LC-MS/MS analysis; format: ADME, organism-based; conditions: in vivo
[19] = Oral bioavailability in cynomolgus monkey at 5 mg/kg by LC-MS/MS analysis; format: ADME, organism-based, Macaca fascicularis; conditions: in vivo
[20] = Oral bioavailability in beagle dog at 2.5 mg/kg by LC-MS/MS analysis; format: ADME, organism-based, Canis lupus familiaris; conditions: beagle, in vivo
[21] = Half life in Balb/c mouse at 1 mg/kg, iv by LC-MS/MS analysis; format: ADME, organism-based; conditions: in vivo
[22] = Half life in cynomolgus monkey at 1 mg/kg, iv by LC-MS/MS analysis; format: ADME, organism-based, Macaca fascicularis; conditions: in vivo
[23] = Half life in beagle dog at 0.5 mg/kg, iv by LC-MS/MS analysis; format: ADME, organism-based, Canis lupus familiaris; conditions: in vivo
[24] = Volume of distribution at steady state in Balb/c mouse at 1 mg/kg, iv or 5 mg/kg, po by LC-MS/MS analysis; format: ADME, organism-based; conditions: in vivo, read-out: Vdss
[25] = Volume of distribution at steady state in cynomolgus monkey at 1 mg/kg, iv or 5 mg/kg, po by LC-MS/MS analysis; format: ADME, organism-based, Macaca fascicularis; conditions: in vivo, read-out: Vdss
[26] = Volume of distribution at steady state in beagle dog at 0.5 mg/kg, iv or 2.5 mg/kg, po by LC-MS/MS analysis; format: ADME, organism-based, Canis lupus familiaris; conditions: in vivo, read-out: Vdss
[27] = Clearance in cynomolgus monkey at 1 mg/kg, iv or 5 mg/kg, po by LC-MS/MS analysis; format: ADME, organism-based, Macaca fascicularis; conditions: in vivo
[28] = Clearance in beagle dog at 0.5 mg/kg, iv or 2.5 mg/kg, po by LC-MS/MS analysis; format: ADME, organism-based, Canis lupus familiaris; conditions: in vivo
[29] = Clearance in Balb/c mouse at 1 mg/kg, iv or 5 mg/kg, po by LC-MS/MS analysis; format: ADME, organism-based; conditions: in vivo
[30] = Ratio of drug level in po dosed Sprague-Dawley rat brain to plasma; format: ADME, organism-based; conditions: read-out: BPR
Rattus norvegicus [31] = experiment: Ex vivo receptor occupancy at P2X7 in po dosed Sprague-Dawley rat brain after 60 mins by autoradiography; format: functional
Rattus norvegicus [32] = experiment: Ex vivo receptor occupancy at P2X7 in po dosed Sprague-Dawley rat brain assessed as plasma concentration required to achieve EC50 after 60 mins by autoradiography; format: functional, organism-based
[33] = Oral bioavailability in Sprague-Dawley rat at 5 mg/kg by LC-MS/MS analysis; format: ADME, organism-based; conditions: in vivo
[34] = Half life in Sprague-Dawley rat at 1 mg/kg, iv by LC-MS/MS analysis; format: ADME, organism-based; conditions: in vivo
[35] = Volume of distribution at steady state in Sprague-Dawley rat at 1 mg/kg, iv or 5 mg/kg, po by LC-MS/MS analysis; format: ADME, organism-based; conditions: in vivo, read-out: Vdss
[36] = Clearance in Sprague-Dawley rat at 1 mg/kg, iv or 5 mg/kg, po by LC-MS/MS analysis; format: ADME, organism-based; conditions: in vivo
P2X purinoceptor 7 = P2X purinoceptor 7 (Homo sapiens, UniProt Q99572); experiment: Antagonist activity at human P2X7
P2X purinoceptor 7, sequence (Q99572 whole entry): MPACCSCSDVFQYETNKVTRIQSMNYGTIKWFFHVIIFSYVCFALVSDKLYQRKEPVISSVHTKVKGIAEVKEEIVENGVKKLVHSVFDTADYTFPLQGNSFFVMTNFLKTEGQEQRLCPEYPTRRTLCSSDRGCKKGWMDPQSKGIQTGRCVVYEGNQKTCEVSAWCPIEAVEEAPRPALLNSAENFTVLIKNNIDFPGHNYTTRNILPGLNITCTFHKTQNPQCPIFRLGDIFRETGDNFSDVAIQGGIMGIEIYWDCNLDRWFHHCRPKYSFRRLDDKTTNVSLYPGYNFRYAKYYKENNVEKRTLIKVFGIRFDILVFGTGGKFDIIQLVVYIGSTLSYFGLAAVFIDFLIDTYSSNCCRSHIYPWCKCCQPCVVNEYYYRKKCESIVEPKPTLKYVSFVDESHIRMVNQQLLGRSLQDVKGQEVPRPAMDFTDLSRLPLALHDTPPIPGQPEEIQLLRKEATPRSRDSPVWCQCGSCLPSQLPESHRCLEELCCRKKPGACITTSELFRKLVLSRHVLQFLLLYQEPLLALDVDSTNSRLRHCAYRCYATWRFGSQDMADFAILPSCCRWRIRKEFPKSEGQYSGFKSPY

T1 sequence (P11712 whole entry): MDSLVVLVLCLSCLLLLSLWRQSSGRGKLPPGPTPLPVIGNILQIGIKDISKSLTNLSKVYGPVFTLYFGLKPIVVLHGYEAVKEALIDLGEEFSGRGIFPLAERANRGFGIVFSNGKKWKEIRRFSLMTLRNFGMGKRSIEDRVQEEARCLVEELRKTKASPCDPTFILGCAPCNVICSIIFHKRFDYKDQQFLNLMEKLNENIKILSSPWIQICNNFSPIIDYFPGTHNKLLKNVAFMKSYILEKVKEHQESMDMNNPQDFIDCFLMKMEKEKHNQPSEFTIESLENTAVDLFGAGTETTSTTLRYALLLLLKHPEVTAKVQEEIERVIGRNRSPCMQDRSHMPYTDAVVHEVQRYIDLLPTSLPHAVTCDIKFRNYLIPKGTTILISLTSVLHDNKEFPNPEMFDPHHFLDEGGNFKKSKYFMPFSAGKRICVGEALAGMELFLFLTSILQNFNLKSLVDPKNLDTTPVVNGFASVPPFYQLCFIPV
T2 sequence (P33261 whole entry): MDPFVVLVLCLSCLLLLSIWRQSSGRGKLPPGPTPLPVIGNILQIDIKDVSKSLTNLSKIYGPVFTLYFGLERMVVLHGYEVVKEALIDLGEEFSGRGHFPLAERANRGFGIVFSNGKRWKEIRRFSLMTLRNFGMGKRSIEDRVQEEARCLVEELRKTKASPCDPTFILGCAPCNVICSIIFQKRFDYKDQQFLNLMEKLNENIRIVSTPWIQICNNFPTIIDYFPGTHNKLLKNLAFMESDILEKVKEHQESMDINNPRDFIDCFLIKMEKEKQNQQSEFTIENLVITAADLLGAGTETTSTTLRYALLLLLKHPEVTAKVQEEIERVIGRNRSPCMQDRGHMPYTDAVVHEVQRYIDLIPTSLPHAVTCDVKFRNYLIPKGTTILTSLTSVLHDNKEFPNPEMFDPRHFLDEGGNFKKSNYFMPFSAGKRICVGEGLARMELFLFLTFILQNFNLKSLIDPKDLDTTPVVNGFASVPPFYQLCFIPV
Cytochrome P450 3A4, sequence (P08684 whole entry): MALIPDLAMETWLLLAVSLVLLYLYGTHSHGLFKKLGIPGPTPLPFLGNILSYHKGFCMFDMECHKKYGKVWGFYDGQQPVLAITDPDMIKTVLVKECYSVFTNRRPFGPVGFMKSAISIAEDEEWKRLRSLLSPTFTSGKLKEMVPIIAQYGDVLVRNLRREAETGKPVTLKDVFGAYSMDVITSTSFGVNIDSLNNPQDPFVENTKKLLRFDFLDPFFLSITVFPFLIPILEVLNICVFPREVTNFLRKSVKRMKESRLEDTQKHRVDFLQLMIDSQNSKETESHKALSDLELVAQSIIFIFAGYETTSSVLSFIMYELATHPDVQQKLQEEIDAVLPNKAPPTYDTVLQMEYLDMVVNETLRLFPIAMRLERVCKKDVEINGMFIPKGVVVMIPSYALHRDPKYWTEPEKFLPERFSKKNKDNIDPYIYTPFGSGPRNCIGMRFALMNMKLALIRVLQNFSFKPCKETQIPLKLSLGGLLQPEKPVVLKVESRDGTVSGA
Voltage-gated inwardly rectifying potassium channel KCNH2, sequence (Q12809 whole entry): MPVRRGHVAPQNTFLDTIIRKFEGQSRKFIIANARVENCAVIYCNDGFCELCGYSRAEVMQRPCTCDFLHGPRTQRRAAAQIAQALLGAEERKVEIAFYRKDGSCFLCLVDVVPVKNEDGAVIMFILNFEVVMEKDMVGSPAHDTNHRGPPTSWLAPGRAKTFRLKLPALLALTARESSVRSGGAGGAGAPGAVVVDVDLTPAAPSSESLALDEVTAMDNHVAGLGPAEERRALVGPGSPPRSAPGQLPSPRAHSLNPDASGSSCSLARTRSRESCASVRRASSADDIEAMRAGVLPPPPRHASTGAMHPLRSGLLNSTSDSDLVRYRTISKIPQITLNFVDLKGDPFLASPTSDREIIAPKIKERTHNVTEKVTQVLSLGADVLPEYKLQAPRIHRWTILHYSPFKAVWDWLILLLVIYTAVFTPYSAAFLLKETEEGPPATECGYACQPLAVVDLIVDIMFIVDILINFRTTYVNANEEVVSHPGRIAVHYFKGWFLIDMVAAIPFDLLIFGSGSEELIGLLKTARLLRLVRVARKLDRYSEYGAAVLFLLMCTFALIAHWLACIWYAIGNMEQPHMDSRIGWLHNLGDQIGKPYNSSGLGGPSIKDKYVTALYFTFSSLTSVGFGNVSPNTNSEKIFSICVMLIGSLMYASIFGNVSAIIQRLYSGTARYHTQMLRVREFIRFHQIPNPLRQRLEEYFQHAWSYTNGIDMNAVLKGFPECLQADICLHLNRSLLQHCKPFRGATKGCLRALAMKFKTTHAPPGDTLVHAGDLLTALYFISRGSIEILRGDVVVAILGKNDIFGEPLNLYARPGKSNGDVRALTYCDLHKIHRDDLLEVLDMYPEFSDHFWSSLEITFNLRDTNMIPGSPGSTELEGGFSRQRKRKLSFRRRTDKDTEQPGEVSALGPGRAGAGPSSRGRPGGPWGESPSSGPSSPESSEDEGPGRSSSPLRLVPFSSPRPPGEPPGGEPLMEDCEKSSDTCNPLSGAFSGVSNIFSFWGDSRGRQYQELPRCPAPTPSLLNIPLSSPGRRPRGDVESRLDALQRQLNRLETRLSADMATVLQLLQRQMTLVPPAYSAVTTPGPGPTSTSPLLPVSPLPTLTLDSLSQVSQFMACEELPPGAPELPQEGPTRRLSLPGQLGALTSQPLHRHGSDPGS
Cytochrome P450 2D6, sequence (P10635 whole entry): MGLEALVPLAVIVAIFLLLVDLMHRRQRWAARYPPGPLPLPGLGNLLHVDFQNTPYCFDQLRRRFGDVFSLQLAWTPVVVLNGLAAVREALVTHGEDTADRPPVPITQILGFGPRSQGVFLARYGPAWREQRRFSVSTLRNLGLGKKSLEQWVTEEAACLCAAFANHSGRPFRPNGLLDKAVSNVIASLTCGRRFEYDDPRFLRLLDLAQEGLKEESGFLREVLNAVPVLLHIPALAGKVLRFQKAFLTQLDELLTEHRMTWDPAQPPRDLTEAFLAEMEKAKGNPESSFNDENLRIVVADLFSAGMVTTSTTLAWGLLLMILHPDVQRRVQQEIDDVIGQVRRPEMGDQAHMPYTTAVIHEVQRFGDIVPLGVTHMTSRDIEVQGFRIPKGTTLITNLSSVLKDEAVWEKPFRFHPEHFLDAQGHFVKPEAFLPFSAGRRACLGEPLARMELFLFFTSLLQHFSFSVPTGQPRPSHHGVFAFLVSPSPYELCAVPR

C[C@@H]1c2nnn(-c3cc(F)ccn3)c2CCN1C(=O)c1cccc(C(F)(F)F)c1Cl
pIC50 (Cytochrome P450 3A4): < 5.00
pIC50 (Cytochrome P450 2D6): < 5.00
pIC50 (Cytochrome P450 2C9 [1]): 5.55
pIC50 (Cytochrome P450 2C19 [2]): 5.68
pIC50 (Cytochrome P450 2C8): < 5.00
pIC50 (Cytochrome P450 1A2): < 5.00
solubility at 72 h [3]: 2.1 µM (≈ 0.924 µg/mL)
solubility at 72 h [4]: 4.8 µM (≈ 2.11 µg/mL)
fraction unbound at 6 h, 1 µM [5]: 0.024
fraction unbound at 6 h, 1 µM [6]: 0.042
fraction unbound at 6 h, 1 µM [7]: 0.052
pIC50 [8]: < 5.00

C[C@@H]1c2nnn(-c3ncccn3)c2CCN1C(=O)c1cccc(C(F)(F)F)c1Cl
Activity (Rattus norvegicus [9]): Toxic
Activity (Rattus norvegicus [10]): Toxic
Activity (Rattus norvegicus [11]): Toxic
concentration (Plasma): 175 µM
Activity (Rattus norvegicus [12]): Toxic
Activity (Rattus norvegicus [13]): Toxic
Drug metabolism (Cytochrome P450 2C9 [14]): Metabolite_Detected
Drug metabolism (Cytochrome P450 2C19 [15]): Metabolite_Detected
Drug metabolism (Rattus norvegicus [16]): Metabolite_Detected
dose excreted [17]: 0.4%
bioavailability [18]: 61%
bioavailability [19]: 5%
bioavailability [20]: 70%
half-life [21]: 24 min
half-life [22]: 48 min
half-life [23]: 660 min
Vd [24]: 1.1 L/kg
Vd [25]: 0.9 L/kg
Vd [26]: 1.3 L/kg
clearance [27]: 19 mL/min/kg
clearance [28]: 1.4 mL/min/kg
clearance [29]: 32 mL/min/kg
pIC50 (Cytochrome P450 3A4): < 5.00
pIC50 (Cytochrome P450 2D6): < 5.00
pIC50 (Cytochrome P450 2C9 [1]): < 5.00
pIC50 (Cytochrome P450 2C19 [2]): < 5.00
pIC50 (Cytochrome P450 2C8): < 5.00
pIC50 (Cytochrome P450 1A2): < 5.00
Kp [30]: 0.8
Occ (Rattus norvegicus [31]): Dose-dependent effect
ED50 (Rattus norvegicus [31]; 1 h): 0.9 mg/kg
Cp (Rattus norvegicus [32]): 27 ng/mL
bioavailability [33]: 92%
half-life [34]: 30 min
Vd [35]: 1.5 L/kg
solubility at 72 h [3]: 180 µM (≈ 76.1 µg/mL)
clearance [36]: 66 mL/min/kg
solubility at 72 h [4]: > 400 µM
fraction unbound at 6 h, 1 µM [5]: 0.084
fraction unbound at 6 h, 1 µM [6]: 0.074
fraction unbound at 6 h, 1 µM [7]: 0.076
pIC50 [8]: < 5.00

O=C(NCC12CC3CC(CC(C3)C1)C2)c1cc(CCCNCCCO)ccc1Cl [AZD9056]
pIC50 (P2X purinoceptor 7): 7.89 to 8.00
